Data set [1] addresses T1, human recombinant OX2 (hOX2) receptors expressed in CHO cells (Homo sapiens, UniProt O43614).
T1 construct: host or cells: CHO cells (hOX2-CHO)
T1 sequence (O43614 1-444): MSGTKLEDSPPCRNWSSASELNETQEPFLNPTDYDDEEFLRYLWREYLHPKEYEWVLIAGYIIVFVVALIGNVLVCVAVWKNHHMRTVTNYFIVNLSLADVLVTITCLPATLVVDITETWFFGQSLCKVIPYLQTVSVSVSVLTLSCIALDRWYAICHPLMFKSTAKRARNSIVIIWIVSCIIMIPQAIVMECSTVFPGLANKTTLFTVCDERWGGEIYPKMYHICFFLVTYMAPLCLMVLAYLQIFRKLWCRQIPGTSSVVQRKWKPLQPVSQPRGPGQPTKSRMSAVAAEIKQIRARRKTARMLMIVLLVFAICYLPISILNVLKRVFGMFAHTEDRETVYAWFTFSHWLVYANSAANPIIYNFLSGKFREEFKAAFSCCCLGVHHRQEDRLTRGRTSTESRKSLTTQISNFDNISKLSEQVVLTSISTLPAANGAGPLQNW
The experiment in a line: IP-1 accumulation assay (IP-One HTRF) in hOX2-CHO cells. It is filed as cell-based. The settings on record: 60 min incubation at 37° C., mean of at least two independent experiments, read-out: EC50_OX2R Category. In short, it runs like this: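 CHO cells in suspension in HBSS/20 mM HEPES pH 7.4 with 50 mM LiCl and 0.1% BSA, given compound (11-point series, 0.5% DMSO) for 60 min at 37 °C. IP-1 read by HTRF ratio, scaled to maximal OX-A response; EC50 from four-parameter fit, mean of ≥2 experiments.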
A general note: Time-resolved FRET reads energy transfer from a long-lived donor to a nearby acceptor.

Where two headings read alike, the source gives them in different places. Where only a bound is given, the exact number is not on record here.

Under “from C[C@@H]1CC2(COCC(=O)N2)C(COC2CC=C(c3cccc(F)c3OCC(=O)O)CC2)N1, amide bond, HATU, DIPEA, acetonitrile, 16.9 mM, 3.0 h”, `C[C@@H]1CC2(COCC(=O)N2)C2COC3CC=C(CC3)c3cccc(F)c3OCC(=O)N21` (some centres unmarked) came in with a ring closure, yield of all isomers of 30.1%.
Regarding `O=C1COc2ccccc2[C@H]2CC[C@H](CC2)OCC2C(O)CCCN12` (some centres unmarked), the ring closure, yield of all isomers (from O=C(O)COc1ccccc1[C@H]1CC[C@@H](OCC2NCCCC2O)CC1, amide bond, HATU, acetonitrile, 19.25 mM, 3.0 h) turned out to be 65%.
For the setting “from C[C@@H]1CC2(COCC(=O)N2)C(Cc2cccc(-c3ccccc3OCCC(=O)O)c2F)N1, amide bond, HATU, DIPEA, acetonitrile, 0.84 mM, 25.0 °C, 2.5 h”, `C[C@@H]1CC2(COCC(=O)N2)C2Cc3cccc(c3F)-c3ccccc3OCCC(=O)N21` (mixture of isomers) [Example 26, (13′R)-22′-fluoro-13′-methyl-8′-oxa-12′-azaspiro[morpholine-3,15′-tetracyclo[16.3.1.0^2,70.0^12,16]docosane]-1′(22′),2′(7′),3′,5′,18′,20′-hexaene-5,11′-dione] showed a ring closure, yield of all isomers of 2.4%. In addition, in data set [1], the EC50 was in the range of 1000 to 10000 nM.
In turn, `C[C@@H]1CC2(COCC(=O)N2)C2Cc3cccc(c3F)-c3ccccc3OCCCC(=O)N21` (mixture of isomers) [Example 27, (14′R)-23′-fluoro-14′-methyl-8′-oxa-13′-azaspiro[morpholine-3,16′-tetracyclo[17.3.1.0^2,70.0^13,17]tricosane]-1′(23′),2′(7′),3′,5′,19′,21′-hexaene-5, 12′-dione] registered a ring closure, yield of all isomers (from C[C@@H]1CC2(COCC(=O)N2)C(Cc2cccc(-c3ccccc3OCCCC(=O)O)c2F)N1, amide bond, HATU, MeCN, 2.3 mM, 25.0 °C, 2.5 h) of 84.9%. The EC50 in data set [1] was 100 to 1000 nM.
Consider `CC1CC(=O)N2CC[C@@]3(COCC(=O)N3)[C@@H]2CO[C@H]2CC[C@H](CC2)c2ccccc2O1` (relative stereo), for which the ring closure, yield of all isomers (from CC(CC(=O)O)Oc1ccccc1[C@H]1CC[C@@H](OC[C@@H]2NCC[C@@]23COCC(=O)N3)CC1, amide bond, HATU/DIPEA, acetonitrile, 3.7 mM, 3.0 h) was determined as 45.6%.
In turn, `O=C1COC[C@@]2(CCCN3C(=O)OCCOc4cccc(c4)[C@H]4CC[C@H](CC4)OC[C@H]32)N1` (relative stereo) gave a ring closure, yield of all isomers (from O=C1COC[C@@]2(CCCN(C(=O)OCCCl)[C@H]2CO[C@H]2CC[C@@H](c3cccc(O)c3)CC2)N1, ether bond, Cs2CO3, DMF, 4.02 mM, 60.0 °C, 15.0 h) of 11.1%.
Consider `O=C1COC[C@@]2(CCCN3C(=O)OCCOc4ccccc4-c4cccc(c4F)C[C@H]32)N1` (relative stereo), for which, under “from O=C1COC[C@@]2(CCCN[C@H]2Cc2cccc(-c3ccccc3OCCO)c2F)N1, other bond, triphosgene, MeCN, 15.7 mM, 80.0 °C, 20.5 h”, the ring closure, yield of all isomers turned out to be 3.6%.
The molecule `O=C1COC[C@@]2(CCN3C(=O)CC(C(F)(F)F)Oc4ccccc4[C@H]4CC[C@H](CC4)OC[C@H]32)N1` (relative stereo) displayed a ring closure, yield of all isomers (from O=C(O)CC(Oc1ccccc1[C@H]1CC[C@@H](OC[C@@H]2NCC[C@@]23COCC(=O)N3)CC1)C(F)(F)F, amide bond, HATU/DIPEA, acetonitrile, 3.68 mM, 3.0 h) of 54.7%.
Turning to `O=C1COC[C@@]2(CCN3C(=O)CCCOc4ccccc4[C@H]4CC[C@H](CC4)OC[C@H]32)N1` (relative stereo), where the note is “from O=C(O)CCCOc1ccccc1[C@H]1CC[C@@H](OC[C@@H]2NCC[C@@]23COCC(=O)N3)CC1, amide bond, HATU/DIPEA, acetonitrile, 2.01 mM, 3.0 h”, the ring closure, yield of all isomers was 54.4%.
As to `O=C1COC[C@@]2(CCN3C(=O)CCOc4c(F)cc(F)cc4C4=CCC(CC4)OC[C@H]32)N1` (relative stereo), the ring closure, yield of all isomers (from O=C(O)CCOc1c(F)cc(F)cc1C1=CCC(OC[C@@H]2NCC[C@@]23COCC(=O)N3)CC1, amide bond, HATU/DIPEA, acetonitrile, 3.43 mM, 3.0 h) turned out to be 60.1%.
Under “from O=C(O)CCOc1cccc(F)c1[C@H]1CC[C@@H](OC[C@@H]2NCC[C@@]23COCC(=O)N3)CC1, amide bond, HATU/DIPEA, acetonitrile, 5.42 mM, 25.0 °C, 4.0 h”, `O=C1COC[C@@]2(CCN3C(=O)CCOc4cccc(F)c4[C@H]4CC[C@H](CC4)OC[C@H]32)N1` (relative stereo) had a ring closure, yield of all isomers of 46.4%.
For the setting “from O=C(O)CCOc1ccccc1[C@H]1CC[C@@H](OC[C@@H]2NCC[C@@]23COCC(=O)N3)CC1, amide bond, HATU/DIPEA, acetonitrile, 1.97 mM, 3.0 h”, `O=C1COC[C@@]2(CCN3C(=O)CCOc4ccccc4[C@H]4CC[C@H](CC4)OC[C@H]32)N1` (relative stereo) yielded a ring closure, yield of all isomers of 92.6%.
`O=C1N[C@]2(CCN3C(=O)CCOc4ccccc4[C@H]4CC[C@H](CC4)OC[C@H]32)COC1F` (relative stereo) returned a ring closure, yield of all isomers (from O=C(O)CCOc1ccccc1[C@H]1CC[C@@H](OC[C@@H]2NCC[C@@]23COC(F)C(=O)N3)CC1, amide bond, HATU/DIPEA, acetonitrile, 3.66 mM, 3.0 h) of 46.1%.
`CC1COc2ccccc2[C@H]2CC[C@H](CC2)OC[C@@H]2N(CC[C@@]23COCC(=O)N3)C1=O` (relative stereo) [Example 5c, (1′s,3R,10′R,16′S,19′s)-10′-methyl-8′,18′-dioxa-12′-azaspiro[morpholine-3,15′-tetracyclo[17.2.2.0^2,70.0^12,16]tricosane]-2′(7′),3′,5′-triene-5,11′-dione and (1′s,3S, 10′S,16′R,19′s)-10′-methyl-8′,18′-dioxa-12′-azaspiro[morpholine-3,15′-tetracyclo[17.2.2.0^2,70.0^12,16]tricosane]-2′(7′), 3′,5′-triene-5,11′-dione] came in with a ring closure, yield of all isomers (from CC(COc1ccccc1[C@H]1CC[C@@H](OC[C@@H]2NCC[C@@]23COCC(=O)N3)CC1)C(=O)O, amide bond, HATU/DIPEA, acetonitrile, 3.68 mM, 3.0 h) of 9.4%. Besides, the EC50 in data set [1] was in the range of 100 to 1000 nM.
As to `C[C@@H]1C[C@@]2(COCC(=O)N2)[C@@H]2CO[C@H]3CC[C@H](CC3)c3c(F)cccc3OCC(=O)N12` (single isomer, unassigned) [Example 17a], for the setting “from C[C@@H]1CC2(COCC(=O)N2)C(CO[C@H]2CC[C@@H](c3c(F)cccc3OCC(=O)O)CC2)N1, amide bond, HATU, DIPEA, acetonitrile, 19.2 mM, 3.0 h”, the ring closure, yield of all isomers turned out to be 9%. For the same molecule, the EC50 in data set [1] is below 100 nM.
In the case of `C[C@@H]1C[C@@]2(COCC(=O)N2)[C@@H]2CO[C@H]3CC[C@H](CC3)c3cccc(F)c3OCCC(=O)N12` (single isomer, unassigned) [Example 24a], under “from C[C@@H]1CC2(COCC(=O)N2)C(CO[C@H]2CC[C@@H](c3cccc(F)c3OCCC(=O)O)CC2)N1, amide bond, HATU, DIPEA, acetonitrile, 12.2 mM, 3.0 h”, the ring closure, yield of all isomers came out at 37.1%. Further, the EC50 in data set [1] was below 100 nM.
Regarding `Cc1ccnc2c1[C@H]1CC[C@H](CC1)OCC1N(CCCC13COCC(=O)N3)C(=O)CO2` (some centres unmarked) [Example 77, (1′s,19′s)-3′-methyl-8′,18′-dioxa-6′,11′-diazaspiro[morpholine-3,15′-tetracyclo[17.2.2.0^2,70.0^11,16]tricosane]-2′,4′,6′-triene-5,10′-dione], where the note is “from Cc1ccnc(O)c1[C@H]1CC[C@@H](OCC2N(C(=O)CCl)CCCC23COCC(=O)N3)CC1, ether bond, K2CO3, acetonitrile, 2.06 mM, 90.0 °C, 12.0 h”, the ring closure, yield of all isomers came to 9.4%. The EC50 in data set [1] was below 100 nM.
